Read-outs that look alike come from different tables or passages of the source.
Key:
ERK = ERK activation in mouse heart lysates with DOX, dabuzalgron and trametinib; type: in vivo
Description: FIGS. 4A-4F. […] The reaction was stopped immediately and lysates were blotted for total and phospho-ERK (pERK). FIG. 4A. […] FIG. 4B. […] FIG. 4C. […] The average pERK/ERK ratio for each experiment was derived from at least 2 individual wells and normalized to the pERK/ERK ratio for vehicle treated NRVMs. FIG. 4D and FIG. 4E. […] Heart lysates were blotted for pERK and ERK. Results were compared using one way ANOVA with Tukey post-test. FIG. 4F.
On Day 7, mice underwent echocardiography and were sacrificed by cervical dislocation after an overdose of isoflurane.
Homogenized tissue or cells were lysed in RIPA buffer with protease and phosphatase inhibitor (as above) and the lysate was passed through a Qiashredder. Equal protein abundance was assured with the Bradford assay (tissue lysates) or equal cell number (NRVMs). Samples were run for 2 hours at 140 v on ice on a Novex NuPAGE 4-12% Bis-Tris gel then transferred to a PVDF membrane at 90V for 1 hour on ice. Membranes were blocked in 5% milk at room temperature for 1 hour. We used Cell Signaling kit #9100 (pERK Thr202/Tyr204 1:250, ERK 1:1000, anti-rabbit HRP 1:1000). BID: (Santa Cruz, SC-11423); Cytochrome C: (Santa Cruz, SC-13560); AIF: (Santa Cruz, SC-13116); Caspase 8: (MBL international corporation, JM-3020-100); PARP: (Cell Signaling, #9532); Caspase 3: (Cell Signaling, #9665); Cleaved caspase 3: (Cell Signaling, #9664)

mouse heart ATP content = system: mouse heart ATP content
Procedure: FIGS. 3A-3E. […] Heart tissue was collected immediately after sacrifice on Day 7. FIG. 3A. […] Gene set analysis was performed on the DESeq2-derived statistics from an omnibus test across these four categories. […] FIG. 3B. RNA abundance for all sequenced cytochrome C oxidase subunits (25 genes), mitochondrial complex I subunits (42 genes), and ATP synthase subunits (17 genes) was aggregated by group and compared to vehicle treatment. FIG. 3C. Quantitative RT-PCR for peroxisome proliferator-activated receptor gamma coactivator 1-alpha (PGC1α) was performed on mouse heart tissue (n in individual bars) FIG. 3D. ATP content was measured in freshly harvested mouse heart tissue (total n in individual bars), then quantified relative to protein content. […] FIG. 3E. Thiobarbituric acid reactive substances (TBARS) were assayed in mouse myocardium.
(§1) (FIG. 3B). […] (FIG. 3C).
Mouse hearts were removed and immediately processed for luciferin-luciferase ATP assay (ThermoFisher Scientific A22066) according to manufacturer instruction. Tissue was homogenized and heated at 95 C for 7 minutes, centrifuged at 14000 rpm for 5 minutes. Total protein in the supernatant was quantified using the Bradford Assay (Pierce #23200). Luminescence was measured at 560 nm.

[1] = system: Complex I, ATP synthase and Cytochrome C oxidase subunit transcripts; assay: RNAseq transcript abundance of mitochondrial gene sets in mouse heart; type: in vivo
Procedure: FIGS. 3A-3E. […] FIG. 3A. […] FIG. 3B. […] FIG. 3C. […] FIG. 3E.
An omnibus test of transcript abundance across all groups was performed with DESeq2 with groups encoded as categorical variables. One hundred-one genes were identified as significant by meeting the q<0.05 threshold (the set of genes with a 5% false discovery rate). Note, genes of potential interest can be found in Table 4.
as §1
RNAseq was performed at the Carolina Center for Genome Sciences High Throughput Sequencing Facility. Libraries were prepared using an Illumina RNA TruSeq kit for total RNA. Single read sequencing (1×100) was performed on an Illumina HiSeq 2000 system. QC-passed reads were aligned to the mouse reference genome (mm9) using MapSplice.3 The alignment profile was determined by Picard Tools v1.64 (broadinstitute.github.io/picard/). Aligned reads were sorted and indexed using SAMtools and translated to transcriptome coordinates then filtered for indels, large inserts, and zero mapping quality using UBU v1.0 (github.com/mozack/ubu). Transcript abundance estimates for each sample were performed using RSEM, an expectation-maximization algorithm4 using the UCSC knownGene transcript and gene definitions. Raw RSEM read counts for all RNAseq samples were normalized to the overall upper quartile.5 Gene level differential expression testing was performed using the method of Love et al. (2014) implemented in the R package DESeq2. Gene set level tests were performed using the method of Efron and Tibshirani (2006) and gene sets as defined in the molecular signatures database, mSigdb.6 .GEO accession number is pending.

[2] = system: neonatal rat ventricular myocytes (NRVMs); assay: Annexin V / propidium iodide apoptosis and cell death in NRVMs; type: cell-based
Procedure: FIGS. 5A-5B. In neonatal rat ventricular myocytes, dabuzalgron protects against apoptotic and necrotic cell death due to doxorubicin. […] Apoptosis was detected using FITC-labeled Annexin V, cell death was detected using propridium iodide, and nuclei were labeled with Hoechst. FIG. 5A. Representative epifluorescence microscopy for each treatment condition. FIG. 5B. Fluorescence intensity was analyzed using Image J software for 3 independent experiments, using at least 2 wells per condition for each experiment.
Cells were washed with cold PBS two times then incubated with 200 μl binding buffer (10 mM HEPES, 140 mM NaCl, and 2.5 mM CaCl2, pH 7.4) including 10 μL fluorescein isothiocyanate (FITC)-labeled Annexin V, 2 μL propidium iodide (PI) and 1 μg/mL Hoechst 33342 (Molecular Probes, USA) for 15 min at room temperature. They were examined under a epifluorescence microscopy (Olympus IX81 Inverted Light Microscope, UNC Microscopy Core). Images were analyzed using Image J software. The experiment was carried out three independent times with duplicates of each treatment condition. An average of 352 nuclei were counted in an average of 6 microscopic fields per experiment.

[3] = NRVMs, DOX, four hour treatment
[4] = DOX + dabuzalgron 10 μg/kg twice daily
[5] = dabuzalgron in the absence of DOX

SMILES	ERK activation in heart (ERK; mice treated with DOX)	decrease in ATP content compared to untreated hearts (mouse heart ATP content; mouse, in vivo) [%]	abundance of ATP synthase subunits (17 genes) ([1]; DOX 20 mg/kg, Day 7)	abundance of Complex I subunits (42 genes) ([1]; DOX 20 mg/kg, Day 7)	apoptosis (Annexin V staining) [2, 3]	necrotic cell death (costaining with Annexin V and propidium iodide) [2, 3]	effect on DOX-induced reduction of ERK activation (ERK; mice, DOX + dabuzalgron)	ERK activation after trametinib (ERK; mice, DOX, dabuzalgron and trametinib)	ATP content (mouse heart ATP content; hearts of DOX-treated mice)	ATP content (mouse heart ATP content; uninjured mice)	expression of ATP synthase subunits after DOX [1, 4]	expression of Complex I subunits after DOX [1, 4]	expression of Cytochrome C oxidase subunits (25 genes) after DOX [1, 4]	ATP synthase subunit abundance [1, 5]	Complex I subunit abundance [1, 5]	Cytochrome C (oxidase subunit) abundance [1, 5]	Annexin V or propidium iodide staining vs untreated cells [2]	effect on DOX-induced necrotic cell death ([2]; NRVMs, DOX 204 with dabuzalgron 1004, four hours)	effect on DOX-induced apoptosis ([2]; NRVMs, DOX with dabuzalgron 1004, four hours)
COc1cccc2c1C(=O)c1c(O)c3c(c(O)c1C2=O)C[C@@](O)(C(=O)CO)C[C@@H]3O[C@H]1C[C@H](N)[C@H](O)[C@H](C)O1 [DOX, doxorubicin]	reduced	23±7	decreased	decreased	increased	increased	–	–	–	–	–	–	–	–	–	–	–	–	–
Cc1c(OCC2=NCCN2)ccc(Cl)c1NS(C)(=O)=O [dabuzalgron, N-[6-chloro-3-(4,5-dihydro-1H-imidazol-2-ylmethoxy)-2-methylphenyl]methanesulfonamide]	–	–	–	–	–	–	partially mitigated	could not restore	restored	did not affect	restored	restored	increased	no significant effect	increased	no significant effect	did not change	abrogated	abrogated

From patent publication US11213514B2, “Alpha-1-adrenergic receptor agonist therapy” (The Regents of the University of California, priority 2016, dated 2022)
